Assay results taken from PubChem BioAssay AID651579 (Sanford-Burnham Center for Chemical Genomics, 2012).
Active and inactive are the calls of the source. How the calls were made is not given here.

tested on: C. elegans hsp-16.2 reporter, heat-shock counterscreen; experiment: heat-shock hsp-16.2 reporter inhibition in worms, dose response, counter-screen for SKN-1 inhibitor project, whole organism, C. elegans (AID 651579)

SMILES	IC50
Fc1ccc(CSc2ncnc3ccccc23)cc1	> 64 µM (inactive)
CCCCOc1ccc(C(=O)OC2CC(C)N(C)CC2C)cc1 (centres undefined)	> 64 µM (inactive)
CCOC(=O)Nc1nc(-c2ccc(F)cc2F)cs1	47.7 µM
CSc1ccc(-c2cc(=O)c3ccccc3o2)cc1	> 64 µM (inactive)
Clc1ccsc1-c1ccc2ccccc2n1	> 64 µM (inactive)
CSc1cccc(NC(=O)c2cccc3cccnc23)c1	46.3 µM
Cc1ccc(-c2noc(-c3cccs3)n2)cc1	> 64 µM (inactive)
CCOc1ccc(-c2nc(-c3cccnc3)no2)cc1	> 64 µM (inactive)
O=C(c1cccs1)c1ccc(-c2cccs2)s1	> 64 µM (inactive)
CCOc1cc(CNCCSc2nnnn2C)cc(Br)c1OCc1ccc(F)cc1	> 64 µM (inactive)
Brc1ccc2nc(N3CCCC3)sc2c1	> 64 µM (inactive)
O=C(/C=C/c1ccc(Br)cc1)c1ccc(NC2=NCCCS2)cc1	> 64 µM (inactive)
O=C(/C=C/c1cccs1)c1ccc(Br)cc1	> 64 µM (inactive)
O=C(/C=C/c1ccc(Cl)cc1)Nc1ccc(CN2CCOCC2)cc1	> 64 µM (inactive)
CCOC(=O)c1c(-c2ccc(-c3ccccc3)cc2)csc1NC(=O)CNCCN(C)C	> 64 µM (inactive)
Cc1oc(-c2ccc(-c3ccccc3)cc2)nc1CN(C)C1CCOC1 (centres undefined)	> 64 µM (inactive)
COc1cc(CNC(C)(C)CO)cc(Br)c1OCc1ccc(Cl)cc1	> 64 µM (inactive)
O=[N+]([O-])c1ccc(OCc2cnc(Cl)s2)cc1	42.3 µM
O=C(Nc1ccc(SC(F)F)cc1)c1ccccc1F	> 64 µM (inactive)
O=C(C=Cc1cccs1)c1ccc(Cl)s1	> 64 µM (inactive)
COc1cc(CNC(C)c2ccccc2)cc(Br)c1OCc1ccc(F)cc1 (centres undefined)	> 64 µM (inactive)
O=C(Nc1nc(-c2ccc(Cl)s2)cs1)c1cccs1	> 64 µM (inactive)
Brc1ccc(CSc2nnc(-c3cccnc3)o2)cc1	45.4 µM
O=[N+]([O-])c1ccc(COc2ccc(CN3CCCC3)cc2)cc1	> 64 µM (inactive)
c1ccc(-c2ccc(-n3ccnc3)cc2)cc1	48.4 µM
Clc1ccc(C#Cc2cccnc2)cc1	2.57 µM

SMILES	IC50
Brc1ccc(-c2nc(-c3ccccc3)no2)o1	> 64 µM (inactive)
Fc1ccc(COc2ccc(-c3nnco3)cc2)cc1	> 64 µM (inactive)
CCCn1nc2cc(C(=O)NCc3ccc(OC(F)(F)F)cc3)ccc2c1OCC	> 64 µM (inactive)
CC1=NN(c2ccccc2)C(=O)/C1=C\C=C1/N(C)c2ccccc2C1(C)C	> 64 µM (inactive)
O=C(Nc1nc2c(ccc3ccccc32)s1)c1ccco1	> 64 µM (inactive)
Fc1ccc(-c2csc(Nc3ccccn3)n2)cc1	> 64 µM (inactive)
c1ccc(-c2csc(Nc3ccccn3)n2)cc1	> 64 µM (inactive)
CCc1nc2c(OCc3ccc(C(F)(F)F)cc3)cccn2c1N(C)C(=O)c1ccncc1	49.9 µM
Fc1ccc(COc2ccc(-c3nnco3)cc2)c(Cl)c1	> 64 µM (inactive)
CCc1ccc(-c2nc(-c3ccncc3)no2)cc1	33.5 µM
Cc1nc2ccccc2cc1OCc1ccc(F)cc1	> 64 µM (inactive)
Clc1ccc(-c2nnc(-c3ccco3)o2)cc1	2.68 µM
CC(C)(C)N=C1NN=C(c2ccc(Cl)cc2)CS1	> 64 µM (inactive)
c1ccc(-c2nc3cc4ccccc4cc3[nH]2)nc1	5.91 µM
Clc1ccc(Cn2nnc(-c3ccccc3)n2)cc1	> 64 µM (inactive)
Cc1ccccc1-c1noc(-c2cccs2)n1	> 64 µM (inactive)
O=[N+]([O-])c1ccc2nc(-c3ccccc3)oc2c1	> 64 µM (inactive)
Cc1ccc(Nc2nc(-c3cccs3)cs2)nc1	13.6 µM
c1ccc2sc(SCc3ccc(-c4nnco4)cc3)nc2c1	> 64 µM (inactive)
Cn1c(=O)c2c(-c3ccccc3)n(-c3ccc(N)cc3)cc2n(C)c1=O	3.62 µM
O=[N+]([O-])c1ccc(NCc2ccc(Cl)cc2)nc1	> 64 µM (inactive)
Brc1ccc(CSc2nnc(-c3ccco3)o2)cc1	> 64 µM (inactive)
O=C(/C=C/Nc1ccc(Br)cc1F)c1ccco1	> 64 µM (inactive)
Clc1ccc2nc(-c3ccc(Br)s3)cn2c1	15.9 µM
O=C(/C=C/Nc1ccccc1F)c1cccs1	> 64 µM (inactive)
CC(C)c1ccc(C(=O)Nc2ccc(CN3CCOCC3)cc2)cc1	> 64 µM (inactive)

SMILES	IC50
CCc1ccc(C(=O)Nc2ccc3nc(C)ccc3c2)cc1	> 64 µM (inactive)
CC/C(=C\c1ccc(Cl)cc1)c1ccncc1	> 64 µM (inactive)
COc1ccc(C(=O)Nc2nc(-c3cccs3)cs2)cc1	> 64 µM (inactive)
Clc1ccccc1-c1nnc(-c2ccccc2Cl)o1	> 64 µM (inactive)
CCN(CC)c1ccc(/C=C2\C(=O)c3ccc(C(=O)O)cc3C2=O)cc1	> 64 µM (inactive)
C=CCSc1ncc(-c2ccccc2)cn1	> 64 µM (inactive)
O=C(Nc1nc(-c2ccc(Cl)s2)cs1)c1ccco1	> 64 µM (inactive)
CCN(CC)c1ccc(/C=C2/C(=O)c3ccc(C(=O)O)cc3C2=O)cc1	> 64 µM (inactive)
Brc1ccc(-c2nnc(-c3ccco3)o2)cc1	> 64 µM (inactive)
O=C(C=Cc1ccccc1)CC(c1ccccc1)N1CCOCC1 (centres undefined)	> 64 µM (inactive)
O=c1cc(-c2ccc(F)cc2)oc2ccccc12	> 64 µM (inactive)
C(=C\c1nnc(-c2cccs2)o1)/c1ccccc1	> 64 µM (inactive)
Clc1ccc(OCCCc2nc(-c3ccncc3)no2)c(Cl)c1	> 64 µM (inactive)
Brc1ccc2oc(-c3ccn[nH]3)cc2c1	> 64 µM (inactive)
O=C(CC(O)(C(F)(F)F)C(F)(F)F)Nc1ccc(Cl)c(Cl)c1	> 64 µM (inactive)
Cc1ccc(N=C/C(C(=O)C(F)(F)F)=C(\O)c2ccco2)cc1Cl	37.7 µM
Fc1ccc(-c2csc(-c3ccncc3)n2)cc1	> 64 µM (inactive)
O=[N+]([O-])c1ccc2cn(-c3ccccc3)nc2c1	> 64 µM (inactive)
O=C(Nc1nccs1)c1ccc2ccccc2c1	> 64 µM (inactive)
O=C(Nc1nc(-c2ccc(Cl)s2)cs1)c1ccccc1	22.6 µM
Clc1ccc(OCc2cnc(Cl)s2)cc1	> 64 µM (inactive)
Fc1ccc(-c2cnc(-c3cccs3)o2)cc1	> 64 µM (inactive)
CN1CCN(c2ccc(NC(=O)c3ccc(Oc4ccccc4)cc3)cc2)CC1	> 64 µM (inactive)
CCN(CC)Cc1ccc(NC(=O)c2sc3cc(Cl)ccc3c2Cl)cc1	> 64 µM (inactive)
c1ccc(Nc2nc(-c3cccs3)cs2)nc1	> 64 µM (inactive)
N=C1C=CC(=C(c2ccc(N)cc2)c2ccc(N)cc2)C=C1	> 64 µM (inactive)

SMILES	IC50
O=C(Nc1ccc(CN2CCOCC2)cc1)c1cc2ccccc2o1	4.25 µM
O=C(/C=C/Nc1ccc(F)c(F)c1)c1cccs1	> 64 µM (inactive)
Fc1ccc(-n2nnc(-c3cccnc3Cl)n2)cc1	> 64 µM (inactive)
CN(C)CC(O)c1ccc(C=Cc2ccc(Cl)cc2)cc1 (centres undefined)	> 64 µM (inactive)
Clc1ccc(C=Cc2ccccn2)c(Cl)c1	22.9 µM
FCCCOc1ccc(-c2nccc(-c3ccccn3)n2)cc1	> 64 µM (inactive)
COc1cc(CNC2CCCC2)cc(Cl)c1OCc1ccc(F)cc1	42.7 µM
Clc1ccc(-c2nnc(-c3ccccc3)o2)c(Cl)c1	> 64 µM (inactive)
O=C(/C=C/Nc1ccc(F)cc1F)c1cccs1	21.4 µM
C(=C\c1nc(-c2ccncc2)no1)/c1ccccc1	> 64 µM (inactive)
Fc1ccc(Cn2nnc(-c3ccc(CN4CCOCC4)cc3)n2)cc1	4.88 µM
c1ccc(-c2csc(-c3ccncc3)n2)cc1	> 64 µM (inactive)
Cc1ccc2nc(-c3ccc(NC(=S)NC4CC(C)(C)NC(C)(C)C4)cc3)sc2c1	> 64 µM (inactive)
Cc1c(N2C(=O)/C(=C\c3ccc(N(C)C)cc3)N(C)C2=S)c(=O)n(-c2ccccc2)n1C	> 64 µM (inactive)
COc1ccc2c(c1)OC/C(=C/c1cccs1)C2=O	> 64 µM (inactive)
Cc1ccc(CSc2nnc(-c3ccco3)o2)cc1	30.6 µM
CCOc1cc(CNC2CCCC2)cc(Cl)c1OCc1ccc(F)cc1	> 64 µM (inactive)
CCOc1cc(CNC2CCCC2)cc(Cl)c1OCc1ccccc1	> 64 µM (inactive)
O=C(N=C1N=C2C=CC(Br)=CN2Cc2ccccc21)c1ccc([N+](=O)[O-])cc1[N+](=O)[O-]	> 64 µM (inactive)
Clc1ccc(C=Cc2ccccn2)cc1	> 64 µM (inactive)
O=C(Nc1nccs1)c1ccc2ccccc2n1	> 64 µM (inactive)
O=C(Nc1ccc(OC(F)F)c(Cl)c1)c1ccccn1	> 64 µM (inactive)
Clc1ccccc1-c1nc(-c2ccncc2)no1	> 64 µM (inactive)
O=C(Nc1ccc(Cl)cn1)c1ccccc1F	> 64 µM (inactive)
CN(C)C(CNC(=O)CCc1nc2cc(Cl)ccc2n(Cc2ccccc2)c1=O)c1ccccc1 (centres undefined)	> 64 µM (inactive)
O=C(NCc1ccncc1)c1ccc(-c2ccc(F)c(F)c2)c2ccoc12	> 64 µM (inactive)
